The results in this text go back to patent US7645449B2, “Sensitizing cells for apoptosis by selectively blocking cytokines” (priority 2003, dated 2010).

Assay type in all cases: cell-based, human
The test system of experiment [1] is RT112 bladder carcinoma cells. Kind of experiment: MTS viability of RT112 cells: chemotherapy- and anti-CD95-induced apoptosis. The following applies: RT112 without IL-4; 50 ng/ml camptothecin or 7 μM etoposide. The text has this: Anticancer treatment using cytotoxic drugs mediates cell death by activating the intracellular apoptotic program. To determine whether IL-4 was able to inhibit apoptosis induced by chemotherapeutic drugs, bladder tumor cells (RT112) were pretreated for two days with different concentrations of IL-4 and subsequently exposed to camptothecin or etoposide.
Human LNCAP prostate cancer cell line and human MDA-MB-231 breast cancer cell line were obtained from the American Type Culture Collection (ATCC, Manassas, Va.). Human RT112 bladder carcinoma cell line was kindly provided by Dr. M. Cippitelli (Regina Elena Cancer Institute, Rome, Italy). Cells were grown in RPMI 1640 (Life Technologies Inc., Grand Island, N.Y.) containing 10% heat inactivated fetal bovine serum supplemented with L-Glutamine 2 mM and 100 units/ml Penicillin-Streptomycin. Cells were kept in 5% CO2 atmosphere and routinely passaged when 80-85% confluent. […] Camptothecin, cisplatin, daunorubicine, etoposide and vincristine were purchased from Sigma-Aldrich Inc. (Sain Louis, Mo.) and resuspended in DMSO (cisplatin, camptothecin and etoposide) or in H2O (daunorubicine and vincristine). Anti-CD95 agonistic antibody (clone CH11) was purchased from Upstate Biotechnology (Lake Placid, N.Y.). Monoclonal antibody anti-Bcl-XL (H5, mouse) was from Santa Cruz (Santa Cruz, Calif.), antibody anti-cFlip/FLAME-1 (NF6, mouse) was kindly provided by Dr. P.H. Krammer (German Cancer Reseach Center, Heidelberg, Germany). Antibody anti β-actin (goat) was purchased from Oncogene (Boston, Mass.):
Cell viability was determined using the CellTiter 96® AQueous One Solution Cell Proliferation Assay (Promega, Madison, Wis.), according to the manufacturer's instructions. The assay is based on reduction of 3-(4,5-dimethylthiazol-2-yl)-5-(3-carboxymethoxyphenyl)-2-(4-sulfophenyl)-2H-tetrazolium, inner salt (MTS) to a colored formazan product that is measured spectrophotometrically. Cells were seeded in 96-well tissue culture plates and incubated at 37° C. in a 5% CO2 incubator overnight. […] After two days cells were treated for 10 hours with chemotherapeutic drugs or anti-CD95, then 20 μl of MTS were added to each well. After 3 hours of incubation at 37° C. with the MTS reagent, the plates were read on a Multilabel Counter (Victor2, Wallac, Perkin-Ehmer Inc., Norwalk, Conn.) and dye absorbance was measured at 490 nm.
The percentage of apoptotic cells was derived from the percentage of viable cells that was directly calculated from the values of the MTS assay. The percentage of protection from apoptosis was determined as: % protection=100%−X
X was calculated with the formule: (C1−C2):100=(S1−S2):X where:
C1 is the viability of untreated control cells, C2 is the viability of control cells treated with the apoptotic stimulus, S1 and S2 are the viability of cells preincubated with cytoldnes or transduced with anti-apoptotic genes, untreated (S1) or treated (S2) with the apoptotic stimuli.
(A) Percentage of viable RT112 bladder carcinoma cells pre-treated for two days with increasing doses of IL-4 (5, 10, 20, 50 and 100 ng/ml) which were maintained also during incubation with chemotherapeutic drugs and exposed to 50 ng/ml camptothecin of 7 μM etoposide. […] Cell viability was determined after 24 hours using the MTS assay as described in Materials and Methods and the percentage of protection from cell death was calculated as described in Materials and Methods. The results shown are the mean ±s.d. of four independent experiments.
When the cytokine is removed by washing the percentage of protection is downmodulated.
(E) IL-4 prevents anti CD95-induced apoptosis. […] Successively, cells were incubated with 30 ng/ml anti-CD95 agonistic antibody in standard medium, Control cells (−) were stimulated with anti-CD95 in the absence of cytokine pre-treatment. The results shown are the mean ±s.d. of four independent experiments.

The subject of experiment [2] is primary neoplastic cells derived from all the histological variants of thyroid epithelial carcinomas (PTC, FTC, UTC). Kind of experiment: Chemotherapy-induced cell death in freshly purified thyroid carcinoma cells compared with normal thyrocytes. The settings on record: cisplatin 300 ng/ml, doxorubicin 5 μM, taxol 5 μM, 6, 12 and 24 h. The method, then:
Such resistance persisted for some days and was generally lost after eight to ten days of in vitro culture (results not shown).
(§1) Thyroid cell purification and culture. Thyroid tissues from normal, PTC, FTC and UTC were digested for 2 hours with collagenase (1.5 mg/ml) (Gibco BRL, Grand Island, N.Y.) and hyaluronidase (20 μg/ml) (Sigma Chemical Co., St. Louis, Mo.) in DMEM. Thyrocytes were purified from the digested tissues by hematopoietic cell depletion with anti-CD45-coupled beads (Dynal, Wirral Merseyside, U.K.) and 12 hours of flask adherence, which allowed removal of other cells. After additional 12 hours of culture, thyroid cells were allowed to grow in monolayer for the immunocytochemistry or detached with trypsin+EDTA following exposure to cytokines or chemotherapeutic agents for functional and protein analyses. Thyrocytes were cultured in standard DMEM with 10% heat-inactivated FBS (Hyclone Laboratories, Logan, UK) in the presence or absence of human recombinant IL-4 (20 ng/ml), IL-10 (40 ng/ml) or IFN-γ (1000 IU/ml) (uroclone, Paignton, UK) and cisplatin (300 ng/ml), doxorubicin (5 μM) and taxol (5 μM) (Sigma) or TRAIL (Alexis, San Diego, USA). For the IL-4 and IL-10 neutralization, thyroid cancer cells were pretreated, for 48 hours, with anti-human IL-4 and IL-10 neutralizing antibodies (1 μg/ml) (R&D systems, MN, USA).
Cell death quantitation. Apoptotic events of neoplastic thyrocytes were evaluated by DNA staining and flow cytometry analysis. Thyroid cell pellets were resuspended in hypotonic fluoroclrome solution containing propidium iodide (50 μg/ml), in 0.1% sodium citrate and 0.1% Triton X-100. The percentage of hypodiploid nuclei was evaluated as previously described. Alternatively, freshly purified thyrocytes were plated in 96-bottomed plates in triplicate at 15,000 cells/well and cultured. The number of viable cells was detected by CellTiter Aqueous Assay Kit (Promega Corporation, WI, USA) adding 20 μl of solution reagent directly to culture wells, incubating for 1 hours at 37° C. and recording absorbance at 490 nm.
FIG. 1. […]

In experiment [3] the test system is Bcl-xL and Bcl-2 in normal thyrocytes. Kind of experiment: Immunoblot of Bcl-xL and Bcl-2 in normal thyrocytes cultured with cytokines. The following applies: after 48 hours of culture; IL-4 20 ng/ml, IL-10 40 ng/ml, IFN-γ 1000 IU/ml. The method, then:
as §1
Protein isolation and Western Blotting. Cell pellets were resuspended in ice-cold NP-40 lysis buffer (50 mM Tris-HCl, pH 7.5, 150 mM NaCl, 1 mM EGTA, 1% NP-40) containing 1 mM PMSF, leupeptin (1 μg/ml), pepstatin (1 μg/ml) and aprotirni (1 μg/ml). Each lysate (30 μg) was fractioned on 12% SDS-polyacrylamide gels and blotted to nitrocellulose (Hybond, Amersham, Little Chalfont Buckinghamshire England, UK). Membrane was blocked for 1 h with nonfat dry milk in TBS containing 0.05% Tween 20 and successively incubated for 2 h with Abs specific to actin (Ab-1, mouse IgM, Calbiochem, Darmstadt, Germany), Bcl-2 (124, mouse IgG1, Upstate Biotechnology Inc.), Bcl-xL (H-5, mouse IgGl, Santa Cniz Biotechnology), IL-4 (3007.11, mouse IgG1, R&D Systems, Inc., Minneapolis, USA), IL-10 (23738.111, mouse IgG2b, R&D Systems), IFN-γ (25718.111, mouse IgG2a, R&D Systems). […]

The next experiment has as its system normal thyrocytes. Kind of experiment: Cytokine protection of normal thyrocytes from chemotherapy-induced apoptosis. The settings on record: 48 h pre-treatment, rhIL-4 20 ng/ml or rhIL-10 40 ng/ml, then drugs for 12 h. The method, then: Thyroid cell purification and culture. Thyroid tissues from normal, PTC, FTC and UTC were digested for 2 hours with collagenase (1.5 mg/ml) (Gibco BRL, Grand Island, N.Y.) and hyaluronidase (20 μg/ml) (Sigma Chemical Co., St. Louis, Mo.) in DMEM. Thyrocytes were purified from the digested tissues by hematopoietic cell depletion with anti-CD45-coupled beads (Dynal, Wirral Merseyside, U.K.) and 12 hours of flask adherence, which allowed removal of other cells. After additional 12 hours of culture, thyroid cells were allowed to grow in monolayer for the immunocytochemistry or detached with trypsin+EDTA following exposure to cytokines or chemotherapeutic agents for functional and protein analyses. […]
Cell death quantitation. Apoptotic events of neoplastic thyrocytes were evaluated by DNA staining and flow cytometry analysis. […] The percentage of hypodiploid nuclei was evaluated as previously described. […] The number of viable cells was detected by CellTiter Aqueous Assay Kit (Promega Corporation, WI, USA) adding 20 μl of solution reagent directly to culture wells, incubating for 1 hours at 37° C. and recording absorbance at 490 nm. […]

As for `CC[C@@]1(O)C(=O)OCc2c1cc1n(c2=O)Cc2cc3ccccc3nc2-1` [camptothecin, reference compound], in experiment [1], the “tumor cells undergoing apoptosis in response to chemotherapeutic agents” value is on record as around 60%.

Take `N.N.[Cl][Pt][Cl]` [cisplatin]: the “sensitivity of primary neoplastic thyroid cells to chemotherapeutic drugs (viability/apoptosis)” value (“sensitivity … (viability/apoptosis)” below) in experiment [2] is “considerable resistance”.

Take `COc1cccc2c1C(=O)c1c(O)c3c(c(O)c1C2=O)C[C@@](O)(C(=O)CO)C[C@@H]3O[C@H]1C[C@H](N)[C@H](O)[C@H](C)O1` [doxorubicin]: the “sensitivity … (viability/apoptosis)” value in experiment [2] was “considerable resistance”.

As to `COc1cc([C@@H]2c3cc4c(cc3[C@@H](O[C@@H]3O[C@@H]5CO[C@@H](C)O[C@H]5[C@H](O)[C@H]3O)[C@H]3COC(=O)[C@H]23)OCO4)cc(OC)c1O` [etoposide, reference compound], in experiment [1], the “tumor cells undergoing apoptosis in response to chemotherapeutic agents” value is around 60%.

With `CC(=O)O[C@H]1C(=O)[C@@]2(C)[C@H]([C@H](OC(=O)c3ccccc3)[C@]3(O)C[C@H](OC(=O)[C@H](O)[C@@H](NC(=O)c4ccccc4)c4ccccc4)C(C)=C1C3(C)C)[C@]1(OC(C)=O)CO[C@@H]1C[C@@H]2O` [taxol], the “sensitivity … (viability/apoptosis)” value in experiment [2] is “considerable resistance”.

B1: IL-10: human recombinant IL-10 (protein, UniProt P22301 19-178, looked up)
Interleukin-10: SPGQGTQSENSCTHFPGNLPNMLRDLRDAFSRVKTFFQMKDQLDNLLLKESLLEDFKGYLGCQALSEMIQFYLEEVMPQAENQDPDIKAHVNSLGENLKTLRLRLRRCHRFLPCENKSKAVEQVKNAFNKLQEKGIYKAMSEFDIFINYIEAYMTMKIRN
Take B1: the “Bcl-xL and Bcl-2 expression in normal thyrocytes” value in experiment [3] is on record as “upregulated”. Further, in the experiment with normal thyrocytes, the “prevention of death of normal thyrocytes exposed to cisplatinum, doxorubicin and taxol” value is reported as “drastically prevented death”.

B2: IFN-γ: human recombinant IFN-γ (protein, UniProt P01579 24-161, looked up)
Interferon gamma: QDPYVKEAENLKKYFNAGHSDVADNGTLFLGILKNWKEESDRKIMQSQIVSFYFKLFKNFKDDQSIQKSVETIKEDMNVKFFNSNKKKRDDFEKLTNYSVTDLNVQRKAIHELIQVMAELSPAAKTGKRKRSQMLFRG
B2: in experiment [3], the “Bcl-xL and Bcl-2 expression in normal thyrocytes” value is on record as “not effective”.
